Structures can show the parent of a compound that is named as a salt. Where two headings read alike, the source gives them in different places.
Target: T1, canine TRPM8 (Canis lupus familiaris, UniProt Q1A7N1)
T1 construct: expressed in transfected cells
Test: In Vitro Canine TRPM8 Functional Assay (icilin-induced intracellular Ca2+, FLIPR/FDSS)
Format: cell-based
Details: for inhibition at 0.2 µM: HEK293, 0.2 μM compound, icilin activation, read-out: % Inh @ 0.2 μM
Method: The functional activity of representative compounds of the formula (I) of the present invention was quantified by measuring changes in intracellular calcium concentration using a Ca^2+-sensitive fluorescent dye. The changes in fluorescent signal were monitored by a fluorescence plate reader, either a FLIPR™ (Molecular Devices) or FDSS (Hamamatsu).
HEK293 cells stably expressing canine TRPM8 were routinely grown as monolayers in Dulbecco's minimum essential medium supplemented with 10% FBS, 2 mM L-glutamine, 100 units/mL penicillin, 100 ug/mL streptomycin and 400 μg/mL G418. Cells were maintained in 5% CO2 at 37° C. At 24 hr prior to assay, cells were seeded in black wall, clear-base poly-D-lysine coated 384-well plates (BD Biosciences, NJ, USA) at a density of 5,000 cells per well in culture medium and grown overnight in 5% CO2 at 37° C. On assay day, growth media was removed, and cells were loaded with Calcium 3 Dye (Molecular Devices) for 35 min at 37° C., under 5% CO2 and then incubated for 25 min at room temperature and atmosphere. Subsequently, cells were tested for agonist-induced increases in intracellular Ca^2+ levels using FLIPR™ or FDSS. Cells were treated with compounds of the formula (I) at varying concentrations and intracellular […] was measured for 5 min prior to the addition of icilin to all wells to achieve a final concentration that produces approximately an 80% maximal response.
Basal FI was subtracted prior to normalizing data to percent of maximal response. Curves were generated using the average of quadruplicate wells for each data point using nonlinear regression of either sigmoidal dose response or sigmoidal dose response (variable slope). Finally, the EC50 and IC50 values were calculated with the best-fit curve determined by GraphPad Prism

[1] = HEK293 cells stably expressing canine TRPM8
[2] = HEK293 cells stably expressing canine TRPM8, icilin at approx. 80% maximal response, eight-point concentration-response, read-out: IC50

T1 sequence (Q1A7N1 1-1104): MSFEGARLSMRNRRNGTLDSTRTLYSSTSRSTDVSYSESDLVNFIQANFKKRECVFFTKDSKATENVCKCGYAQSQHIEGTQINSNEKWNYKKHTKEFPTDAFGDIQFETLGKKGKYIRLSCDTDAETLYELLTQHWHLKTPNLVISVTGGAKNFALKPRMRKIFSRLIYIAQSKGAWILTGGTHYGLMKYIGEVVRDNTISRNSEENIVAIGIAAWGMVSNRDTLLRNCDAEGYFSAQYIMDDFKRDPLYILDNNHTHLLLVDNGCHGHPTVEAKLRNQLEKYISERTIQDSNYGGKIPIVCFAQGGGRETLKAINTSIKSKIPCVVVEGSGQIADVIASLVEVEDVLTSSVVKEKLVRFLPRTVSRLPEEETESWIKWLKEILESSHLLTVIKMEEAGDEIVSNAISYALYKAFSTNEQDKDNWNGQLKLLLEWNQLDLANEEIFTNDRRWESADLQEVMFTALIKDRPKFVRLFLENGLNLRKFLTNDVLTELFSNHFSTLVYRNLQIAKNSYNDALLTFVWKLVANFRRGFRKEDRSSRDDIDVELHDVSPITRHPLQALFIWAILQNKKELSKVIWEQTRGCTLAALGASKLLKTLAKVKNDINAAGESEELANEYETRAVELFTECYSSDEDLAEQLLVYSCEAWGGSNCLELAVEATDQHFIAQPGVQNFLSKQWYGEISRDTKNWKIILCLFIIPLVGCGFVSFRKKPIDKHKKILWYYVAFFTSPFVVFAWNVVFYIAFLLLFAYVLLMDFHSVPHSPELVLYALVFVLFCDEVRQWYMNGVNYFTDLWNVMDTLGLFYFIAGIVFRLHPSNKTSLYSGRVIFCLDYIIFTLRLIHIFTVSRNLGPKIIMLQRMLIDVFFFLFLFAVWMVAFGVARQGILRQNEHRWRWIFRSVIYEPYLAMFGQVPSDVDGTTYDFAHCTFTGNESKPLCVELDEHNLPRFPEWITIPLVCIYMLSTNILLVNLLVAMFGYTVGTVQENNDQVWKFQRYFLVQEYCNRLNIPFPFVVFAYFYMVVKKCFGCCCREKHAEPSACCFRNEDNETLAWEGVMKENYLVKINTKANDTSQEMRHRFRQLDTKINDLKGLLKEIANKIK

| inhibition at 0.2 µM [1] [%] | inhibition at 1 µM (re-test, 1 μM, 10 mM stock diluted with 100% DMSO prior to addition to assay buffer) [%] | IC50 (re-test, 10 mM stock diluted with 100% DMSO prior to addition to assay buffer, read-out: calculated IC50) [nM] | IC50 [2] [nM] | Structure (SMILES) |
| --- | --- | --- | --- | --- |
| 19 | – | – | – | CCCCN(c1nc2ccccc2n1Cc1ccccc1)S(=O)(=O)c1ccccc1 [Compound #1, N-(1-benzyl-1H-benzimidazol-2-yl)-N-butyl-benzenesulfonamide] |
| 9 | 101 | 94 | – | CN(c1nc2ccccc2n1C)S(=O)(=O)c1ccccc1 [Compound #3, N-methyl-N-(1-methyl-1H-benzimidazol-2-yl)-benzenesulfonamide] |
| 92 | – | – | 41 | CCCCN(c1nc2ccccc2n1C)S(=O)(=O)c1ccccc1 [Compound #4, N-Butyl-N-(1-methyl-1H-benzimidazol-2-yl)-benzenesulfonamide] |
| 102 | – | – | 3 | Cn1c(N(Cc2cccc(C(F)(F)F)c2)S(=O)(=O)c2ccccc2)nc2ccccc21 [Compound #12, N-(1-Methyl-1H-benzimidazol-2-yl)-N-(3-trifluoromethyl-benzyl)-benzenesulfonamide] |
| 94 | – | – | 33 | Cn1c(N(c2ccc(Cl)cc2)S(=O)(=O)c2ccccc2)nc2ccccc21 [Compound #36, N-(4-Chloro-phenyl)-N-(1-methyl-1H-benzimidazol-2-yl)-benzenesulfonamide] |
| 89 | – | – | 27 | O=S(=O)(c1ccccc1)N(Cc1ccc(C(F)(F)F)c(F)c1)c1nc2ccccc2n1CC(F)(F)F [Compound #60, N-(3-Fluoro-4-trifluoromethyl-benzyl)-N-[1-(2,2,2-trifluoro-ethyl)-1H-benzimidazol-2-yl]-benzenesulfonamide] |
| 101 | – | – | 37 | O=S(=O)(c1ccccc1)N(Cc1ccc(C(F)(F)F)c(F)c1)c1nc2ccccc2n1CC1CC1 [Compound #71, N-(1-Cyclopropylmethyl-1H-benzimidazol-2-yl)-N-(3-fluoro-4-trifluoromethyl-benzyl)-benzenesulfonamide] |
| 99 | – | – | 22 | O=S(=O)(c1ccccc1)N(Cc1ccc(C(F)(F)F)cc1)c1nc2cccc3c2n1CCO3 [Compound #72, N-(3,4-Dihydro-5-oxa-1,2a-diaza-acenaphthylen-2-yl)-N-(4-trifluoromethyl-benzyl)-benzenesulfonamide TFA salt] |
| 99 | – | – | 3.4 | O=S(=O)(c1ccccc1)N(Cc1ccc(OC(F)(F)F)cc1)c1nc2cccc3c2n1CCO3 [Compound #73] |
| 11 | – | – | – | CCCCN(c1nc2ccccc2n1CCO)S(=O)(=O)c1ccccc1 [compound 2, N-butyl-N-[1-(2-hydroxy-ethyl)-1H-benzimidazol-2-yl]-benzenesulfonamide] |
| 101 | – | – | 4 | Cn1c(N(Cc2ccc(F)cc2)S(=O)(=O)c2ccccc2)nc2ccccc21 [compound 8] |
| 101 | – | – | 2 | Cn1c(N(Cc2ccc(F)c(F)c2)S(=O)(=O)c2ccccc2)nc2ccccc21 [compound 9] |
| 101 | – | – | 8 | Cn1c(N(Cc2ccccc2)S(=O)(=O)c2ccccc2)nc2ccccc21 [compound 10] |
| 101 | – | – | 2 | Cn1c(N(Cc2ccc(C(F)(F)F)cc2)S(=O)(=O)c2ccccc2)nc2ccccc21 [compound 11] |
| 101 | – | – | 3 | Cn1c(N(Cc2cccc(OC(F)(F)F)c2)S(=O)(=O)c2ccccc2)nc2ccccc21 [compound 13] |
| 97 | – | – | 30 | Cn1c(N(Cc2ccc(F)c(C(F)(F)F)c2)S(=O)(=O)c2cccc(Cl)c2)nc2ccccc21 [compound 14] |
| 99 | – | – | 5 | Cn1c(N(Cc2ccc(F)c(C(F)(F)F)c2)S(C)(=O)=O)nc2ccccc21 [compound 17] |
| 106 | – | – | 14 | Cc1ccc(S(=O)(=O)N(Cc2ccc(F)c(C(F)(F)F)c2)c2nc3ccccc3n2C)cc1 [compound 18] |
| 101 | – | – | 1 | Cn1c(N(Cc2ccc(SC(F)(F)F)cc2)S(=O)(=O)c2ccccc2)nc2ccccc21 [compound 19] |
